ChEMBL document CHEMBL1201862, “PubChem BioAssay data set” (2004)
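Five concentrations, 48 hours, 96-well plates. Here, GI50 denotes the concentration required for 50% inhibition of growth.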 Activity calls are given as the source filed them. Cut-off read from the data, not from the text of the source: active = GI50 up to about 1.1 µM and inactive = higher.

Assays:
Test in all cases: inhibition of tumour cell growth, NCI panel, 48 h
[1] = system: IGROV-1
[2] = system: NCI-H522
[3] = system: SK-OV-3
[4] = system: SF-539
[5] = system: OVCAR-8
[6] = system: NCI-H23
[7] = system: MOLT-4
[8] = system: SK-MEL-5
[9] = system: A549
[10] = system: HOP-62
[11] = system: 786-0
[12] = system: DMS-273
[13] = system: SK-MEL-28
[14] = system: Malme-3M
[15] = system: ACHN
[16] = system: SNB-75
[17] = system: U-251
[18] = system: OVCAR-3
[19] = system: UACC-257
[20] = system: MDA-N

SMILES	GI50 [1]	GI50 [2]	GI50 [3]	GI50 [4]	GI50 [5]	GI50 [6]	GI50 [7]	GI50 [8]	GI50 [9]	GI50 [10]	GI50 [11]	GI50 [12]	GI50 [13]	GI50 [14]	GI50 [15]	GI50 [16]	GI50 [17]	GI50 [18]	GI50 [19]	GI50 [20]
O=C(CC(O)(c1ccccc1)c1ccc(Cl)cc1)NC(=O)c1ccccc1O (configuration not stated)	5.75 µM (inactive)	3.16 µM (inactive)	17.1 µM (inactive)	11.6 µM (inactive)	4.54 µM (inactive)	6.5 µM (inactive)	10 µM (inactive)	6.52 µM (inactive)	8.07 µM (inactive)	6.52 µM (inactive)	10.5 µM (inactive)	13.2 µM (inactive)	19.8 µM (inactive)	14.9 µM (inactive)	4.49 µM (inactive)	6.44 µM (inactive)	3.38 µM (inactive)	4.36 µM (inactive)	10.3 µM (inactive)	–
O=C(Cc1nc2sc3c(c2c(=O)[nH]1)CCCC3)Nc1ccccc1	> 100 µM (inactive)	> 100 µM (inactive)	43.5 µM (inactive)	73.6 µM (inactive)	> 100 µM (inactive)	> 100 µM (inactive)	> 100 µM (inactive)	> 100 µM (inactive)	> 100 µM (inactive)	> 100 µM (inactive)	71.1 µM (inactive)	> 100 µM (inactive)	> 100 µM (inactive)	> 100 µM (inactive)	> 100 µM (inactive)	25.1 µM (inactive)	> 100 µM (inactive)	> 100 µM (inactive)	–	–
Cn1nc(-c2cccc(-c3nn(C)/c(=N\CCO)s3)n2)s/c1=N/CCO	> 100 µM (inactive)	36.5 µM (inactive)	–	> 100 µM (inactive)	> 100 µM (inactive)	> 100 µM (inactive)	> 100 µM (inactive)	> 100 µM (inactive)	> 100 µM (inactive)	> 100 µM (inactive)	> 100 µM (inactive)	> 100 µM (inactive)	> 100 µM (inactive)	–	> 100 µM (inactive)	> 100 µM (inactive)	> 100 µM (inactive)	–	> 100 µM (inactive)	–
CCCCCCCCCCC(O)C1CCC(C(O)CCC(O)C2CCC(CCCCCCC[C@H](O)CC3=C[C@@H](C)OC3=O)O2)O1 (some centres not stated)	31.5 µM (inactive)	1.34 µM (inactive)	30.3 µM (inactive)	26.8 µM (inactive)	10.2 µM (inactive)	0.01 µM (active)	2.02 µM (inactive)	0.01 µM (active)	15.1 µM (inactive)	> 40.6 µM (inactive)	17.3 µM (inactive)	41.6 µM (inactive)	> 51.9 µM (inactive)	29.6 µM (inactive)	1.2 µM (inactive)	6.9 µM (inactive)	10.2 µM (inactive)	18.3 µM (inactive)	< 0.0169 µM (active)	> 10 µM (inactive)
COC(=O)n1c(CBr)c(Br)c2ccccc21	20.9 µM (inactive)	17.2 µM (inactive)	–	31.3 µM (inactive)	48.2 µM (inactive)	22.7 µM (inactive)	26.2 µM (inactive)	51.5 µM (inactive)	40.5 µM (inactive)	21.2 µM (inactive)	45 µM (inactive)	46.2 µM (inactive)	> 100 µM (inactive)	79.6 µM (inactive)	18.6 µM (inactive)	10.8 µM (inactive)	27 µM (inactive)	20.3 µM (inactive)	39.2 µM (inactive)	–
CCCCCCCCOCC(O)CO (configuration not stated)	> 100 µM (inactive)	28 µM (inactive)	> 100 µM (inactive)	> 100 µM (inactive)	> 100 µM (inactive)	> 100 µM (inactive)	44.7 µM (inactive)	> 100 µM (inactive)	> 100 µM (inactive)	> 100 µM (inactive)	> 100 µM (inactive)	> 100 µM (inactive)	> 100 µM (inactive)	> 100 µM (inactive)	> 100 µM (inactive)	43.3 µM (inactive)	> 100 µM (inactive)	> 100 µM (inactive)	> 100 µM (inactive)	–
NCCCCC(=O)c1cccnc1	> 100 µM (inactive)	> 100 µM (inactive)	> 100 µM (inactive)	> 100 µM (inactive)	> 100 µM (inactive)	> 100 µM (inactive)	> 100 µM (inactive)	> 100 µM (inactive)	> 100 µM (inactive)	> 100 µM (inactive)	> 100 µM (inactive)	> 100 µM (inactive)	> 100 µM (inactive)	> 100 µM (inactive)	–	–	> 100 µM (inactive)	> 100 µM (inactive)	> 100 µM (inactive)	–
CC(C)(CN1CCCCC1)C(=O)/C=C/c1ccc(Cl)cc1	> 10 µM (inactive)	2.73 µM (inactive)	11.2 µM (inactive)	2.23 µM (inactive)	2.32 µM (inactive)	2.69 µM (inactive)	1.81 µM (inactive)	3.08 µM (inactive)	3.42 µM (inactive)	> 10 µM (inactive)	2.72 µM (inactive)	3.52 µM (inactive)	8.17 µM (inactive)	5.06 µM (inactive)	5.12 µM (inactive)	2.44 µM (inactive)	3.51 µM (inactive)	2.77 µM (inactive)	6.4 µM (inactive)	–
CC(=O)Oc1cccc2c1C(=O)C(Br)(Br)CCC2	13.5 µM (inactive)	1.87 µM (inactive)	10.1 µM (inactive)	9.31 µM (inactive)	4.38 µM (inactive)	4.29 µM (inactive)	1.11 µM (active)	4.41 µM (inactive)	17.7 µM (inactive)	14.4 µM (inactive)	5.32 µM (inactive)	3.75 µM (inactive)	10.5 µM (inactive)	4.07 µM (inactive)	6.38 µM (inactive)	6.1 µM (inactive)	9.62 µM (inactive)	6.97 µM (inactive)	10.9 µM (inactive)	2.89 µM (inactive)
CCCCCCCCCCCCCCCCCC(=O)OCC(C[As](=O)(O)O)OC(=O)CCCCCCCCCCCCCCCCC (configuration not stated)	52.5 µM (inactive)	33.1 µM (inactive)	18.2 µM (inactive)	32.6 µM (inactive)	> 100 µM (inactive)	34 µM (inactive)	> 100 µM (inactive)	> 100 µM (inactive)	> 100 µM (inactive)	24.4 µM (inactive)	27.2 µM (inactive)	65.3 µM (inactive)	> 100 µM (inactive)	30.1 µM (inactive)	34.3 µM (inactive)	29.4 µM (inactive)	26 µM (inactive)	60.4 µM (inactive)	> 100 µM (inactive)	–
COC1=NN2C(OC)(c3ccccc3)c3c(-c4ccccc4)sc(-c4ccccc4)c3C2(c2ccccc2)S1 (configuration not stated)	> 100 µM (inactive)	> 100 µM (inactive)	> 100 µM (inactive)	> 100 µM (inactive)	> 100 µM (inactive)	> 100 µM (inactive)	> 100 µM (inactive)	–	> 100 µM (inactive)	> 10 µM (inactive)	> 100 µM (inactive)	> 100 µM (inactive)	> 100 µM (inactive)	> 100 µM (inactive)	> 100 µM (inactive)	> 100 µM (inactive)	> 100 µM (inactive)	> 10 µM (inactive)	> 100 µM (inactive)	–
CN(C)CCC1(C2=CCCC2)CC/C(=C\c2ccc(Cl)cc2)C1=O (configuration not stated)	7.14 µM (inactive)	6.68 µM (inactive)	6.93 µM (inactive)	12.7 µM (inactive)	12.3 µM (inactive)	14.5 µM (inactive)	2.24 µM (inactive)	1.99 µM (inactive)	12.4 µM (inactive)	16.9 µM (inactive)	4.04 µM (inactive)	10.8 µM (inactive)	2.49 µM (inactive)	6.56 µM (inactive)	11.5 µM (inactive)	6.85 µM (inactive)	8.87 µM (inactive)	13.7 µM (inactive)	2.92 µM (inactive)	–
